Results reported in patent US20020128311A1, “Halocyanoacetamide antimicrobial compositions” (priority 2000, published 2002).
One block for each compound: values may come before it.

Legend:
[1] = Stability of CMIT and DBNPA mixtures in GTA, stored at 50° C., HPLC; format: physicochemical; conditions: […]% DBNPA, […]% CMIT/MIT mixture
Method: Surfactants were TweenTM 20, TritonTM DF-12 or TritonTM CF-10. The compositions were stored at 50° C. for 4 weeks and the concentrations of active ingredients ([…]) in the compositions were determined by HPLC at the indicated time intervals.

[2] = Stability of DCOIT and DBNPA mixtures in GTA, stored at 40° C., HPLC; format: physicochemical; conditions: 4% DCOIT, […]% DBNPA
Method: […] […] Surfactants were TweenTM 20, TritonTM DF-12 or TritonTM CF-10. These compositions were stored at 40° C. for 6 weeks and the concentrations of active ingredients ([…]) in the compositions were determined by HPLC at the indicated time intervals.

[3] = Freeze/thaw stability of DCOIT/DBNPA/surfactant/GTA compositions, HPLC; format: physicochemical; conditions: for % DCOIT retained after Freezing and Thawing: thawed at 25° C. 5 hours, three times
Method: Samples were prepared to test the freeze/thaw stability of compositions of the present invention. The freeze/thaw test was conducted for compositions of […], surfactant and GTA prepared in Example 4. Samples (20 g each) were stored at -10° C. or -25° C. for 19 hours to be frozen; samples were then stored at 25° C. for 5 hours to be thawed. This sequence was repeated three times. Then the concentrations of active ingredients ([…]) in the compositions were determined by HPLC.

[4] = Solubility in glyceryl triacetate; conditions: based on total amount of compound and solvent

SMILES: Cn1sc(Cl)cc1=O [CMIT, 5-chloro-2-methyl-3-isothiazolone]
% CMIT retained ([1]; 5% Triton CF-10, 45% GTA, 0 Time): 100% | % CMIT retained ([1]; 5% Triton CF-10, 45% GTA, 1 Week): 98% | % CMIT retained ([1]; 5% Triton CF-10, 45% GTA, 2 Weeks): 96% | % CMIT retained ([1]; 5% Triton CF-10, 45% GTA, 3 Weeks): 86% | % CMIT retained ([1]; 5% Triton CF-10, 45% GTA, 4 Weeks): 84% | % CMIT retained ([1]; 5% Triton DF-12, 45% GTA, 0 Time): 100% | % CMIT retained ([1]; 5% Triton DF-12, 45% GTA, 1 Week): 100% | % CMIT retained ([1]; 5% Triton DF-12, 45% GTA, 2 Weeks): 99% | % CMIT retained ([1]; 5% Triton DF-12, 45% GTA, 3 Weeks): 87% | % CMIT retained ([1]; 5% Triton DF-12, 45% GTA, 4 Weeks): 85% | % CMIT retained ([1]; 5% Tween 20, 45% GTA, 0 Time): 100% | % CMIT retained ([1]; 5% Tween 20, 45% GTA, 1 Week): 100% | % CMIT retained ([1]; 5% Tween 20, 45% GTA, 2 Weeks): 80% | % CMIT retained ([1]; 5% Tween 20, 45% GTA, 3 Weeks): 75% | % CMIT retained ([1]; 5% Tween 20, 45% GTA, 4 Weeks): 74% | % CMIT retained ([1]; no surfactant, 50% GTA, 0 Time): 100% | % CMIT retained ([1]; no surfactant, 50% GTA, 1 Week): 102% | % CMIT retained ([1]; no surfactant, 50% GTA, 2 Weeks): 97% | % CMIT retained ([1]; no surfactant, 50% GTA, 3 Weeks): 90% | % CMIT retained ([1]; no surfactant, 50% GTA, 4 Weeks): 88%

% DCOIT retained ([2]; 5% Triton CF-10, 66% GTA, 4 Weeks): 96.0% | % DCOIT retained ([2]; 5% Triton CF-10, 66% GTA, 6 Weeks): 95.6% | % DCOIT retained ([2]; 5% Triton CF-10, 66% GTA, Time 0): 100.0% | % DCOIT retained ([2]; 5% Triton DF-12, 66% GTA, 4 Weeks): 100.0% | % DCOIT retained ([2]; 5% Triton DF-12, 66% GTA, 6 Weeks): 98.2% | % DCOIT retained ([2]; 5% Triton DF-12, 66% GTA, Time 0): 100.0% | % DCOIT retained ([2]; 5% Tween 20, 66% GTA, 4 Weeks): 94.3% | % DCOIT retained ([2]; 5% Tween 20, 66% GTA, 6 Weeks): 94.0% | % DCOIT retained ([2]; 5% Tween 20, 66% GTA, Time 0): 100.0% | % DCOIT retained after Freezing and Thawing ([3]; Example 4 composition with Triton CF-10, frozen at −10° C. 19 hours): 100.0% | % DCOIT retained after Freezing and Thawing ([3]; Example 4 composition with Triton CF-10, frozen at −25° C. 19 hours): 100.0% | % DCOIT retained after Freezing and Thawing ([3]; Example 4 composition with Triton DF-12, frozen at −10° C. 19 hours): 100.0% | % DCOIT retained after Freezing and Thawing ([3]; Example 4 composition with Triton DF-12, frozen at −25° C. 19 hours): 100.0% | % DCOIT retained after Freezing and Thawing ([3]; Example 4 composition with Tween 20, frozen at −10° C. 19 hours): 100.0% | % DCOIT retained after Freezing and Thawing ([3]; Example 4 composition with Tween 20, frozen at −25° C. 19 hours): 100.0% | solubility in glyceryl triacetate ([4]; at 5° C.): 8 % by weight | solubility in glyceryl triacetate ([4]; at 25° C.): 8 % by weight | solubility in glyceryl triacetate ([4]; at 40° C.): 20 % by weight
SMILES: CCCCCCCCn1sc(Cl)c(Cl)c1=O [DCOIT]
physical stability (appearance) during freeze/thaw cycling ([3]; in GTA solutions in the presence of surfactants): clear solution, no precipitation or phase separation observed
